Positions count from the first letter of the chain named.
What was measured:
UL97 D456A = target: T1, UL97 D456A (Human cytomegalovirus, UniProt Q68101, D456A); test: UL97 autophosphorylation protein kinase assay, D456A; assay type: biochemical; conditions: D456A mutant
T1 construct: PCR reaction to generate the full length UL97; honey bee melittin secretion signal (N); made in house; host or cells: Sf21 insect cells, recombinant baculovirus (pMelBac C)
T1 sequence (Q68101 1-707 D456A): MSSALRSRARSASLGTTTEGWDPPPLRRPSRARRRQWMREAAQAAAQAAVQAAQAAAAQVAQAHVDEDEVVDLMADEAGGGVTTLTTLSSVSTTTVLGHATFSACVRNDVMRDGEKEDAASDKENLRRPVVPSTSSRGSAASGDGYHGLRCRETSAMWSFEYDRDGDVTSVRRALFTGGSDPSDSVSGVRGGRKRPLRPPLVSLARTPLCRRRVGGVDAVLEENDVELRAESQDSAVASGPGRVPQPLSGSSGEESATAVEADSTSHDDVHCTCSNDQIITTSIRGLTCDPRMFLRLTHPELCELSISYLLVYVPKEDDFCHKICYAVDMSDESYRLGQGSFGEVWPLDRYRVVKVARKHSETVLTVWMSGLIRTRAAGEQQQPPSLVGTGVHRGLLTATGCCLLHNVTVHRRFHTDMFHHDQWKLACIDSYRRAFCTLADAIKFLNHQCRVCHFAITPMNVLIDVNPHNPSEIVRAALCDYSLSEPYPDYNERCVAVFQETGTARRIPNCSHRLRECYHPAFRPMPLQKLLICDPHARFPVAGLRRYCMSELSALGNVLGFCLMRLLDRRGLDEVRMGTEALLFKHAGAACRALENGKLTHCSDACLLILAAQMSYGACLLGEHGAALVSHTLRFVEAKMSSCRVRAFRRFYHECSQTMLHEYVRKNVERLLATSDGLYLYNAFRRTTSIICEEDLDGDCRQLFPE
Protocol: (§1) Analysis of the autophosphorylation of wild type and mutant UL97 protein species was performed by a standard protein kinase assay as previously described (46). Briefly, purified protein was added to 2× protein kinase buffer (100 mM Tris HCl, pH9.0, 20 mM MgCl2, 10 μM ATP, 4 mM DTT, 2 M NaCl) and 370 KBq [γ^32P] ATP (Amersham), made up to 20 μl with SDW and incubated at 37°C. The reactions were terminated by the addition of 2× SDS sample buffer followed by boiling for 3 minutes. The amount of radiolabelled phosphate incorporated by autophosphorylation was analysed by SDS-PAGE and measured using the Biorad Mulitanalyst. The protein kinase assays were initially performed for 2 to 60 minutes to determine the maximum rate of phosphate incorporation, all assays were then performed at the maximum rate which equated to 5 minutes.
(§2) Enzyme kinetic analysis was performed on the purified wild type and mutant UL97 protein species as above using increasing concentrations of ATP (2 μM to 20 μM). The amount of incorporated radiolabelled phosphate was plotted against the concentration of ATP in a Lineweaver Burke plot to determine the Km for ATP for each UL97 species. […]

UL97 H662L = target: T2, UL97 H662L (Human cytomegalovirus, UniProt Q68101, H662L); test: UL97 autophosphorylation protein kinase assay, H662L; assay type: biochemical; conditions: H662L mutant
T2 construct: PCR reaction to generate the full length UL97; honey bee melittin secretion signal (N); made in house; host or cells: Sf21 insect cells, recombinant baculovirus (pMelBac C)
T2 sequence (Q68101 1-707 H662L): T1 sequence (Q68101 1-707 D456A) with A456D, H662L
Protocol: as §1, §2

UL97 V665I = target: T3, UL97 V665I (Human cytomegalovirus, UniProt Q68101, V665I); test: UL97 autophosphorylation protein kinase assay, V665I; assay type: biochemical; conditions: V665I mutant
T3 construct: PCR reaction to generate the full length UL97; honey bee melittin secretion signal (N); made in house; host or cells: Sf21 insect cells, recombinant baculovirus (pMelBac C)
T3 sequence (Q68101 1-707 V665I): T1 sequence (Q68101 1-707 D456A) with A456D, V665I
Protocol: as §1, §2

[1] = system: wild type and mutant UL97 proteins; test: UL97 autophosphorylation protein kinase assay, all UL97 species pooled; assay type: biochemical, human cytomegalovirus; conditions: maribavir 0.5 μM; every form of UL97 investigated (mutant and wild type)
Protocol: as §1, §2

Work on `CC(C)Nc1nc2cc(Cl)c(Cl)cc2n1[C@H]1O[C@@H](CO)[C@H](O)[C@@H]1O` [maribavir, 5,6-dichloro-2-(isopropylamino)-1-beta-L-ribofuranosyl-1H-benzimidazole] yielded an IC50 (UL97 D456A) of 34 nM, an IC50 (UL97 H662L) of 40 nM and an IC50 (UL97 V665I) of 30 nM. The “autophosphorylation as % of total phosphorylation of the wild type UL97 protein” value [1] was “below 10%”.
